The values that follow come from patent US20210403573A1, “METHODS AND PHARMACEUTICAL COMPOSITIONS FOR THE TREATMENT OF FIBROSIS WITH AGENTS CAPABLE OF INHIBITING THE ACTIVATION OF MUCOSAL-ASSOCIATED INVARIANT T (MAIT) CELLS” (INSERM (Institut National de la Santé et de la Recherche …, priority 2017, published 2021).

The target of the assay is T1, MR1 (Homo sapiens, UniProt Q95460).
T1 construct: endogenous in cells; host or cells: human hepatic myofibroblasts (HMF), alone or in co-culture with MAIT cells
The assay can be described thus: Surface expression of MR1 on hepatic myofibroblasts by flow cytometry. The note with it: 1 μM, 2 hrs at 37° C., PE-conjugated anti MR1 antibody (26.5). The format is cell-based. On the procedure: Analysis of Surface Expression of MR1 on Hepatic Myofibroblasts by Flow Cytometry
Hepatic myofibroblast cultures or HMF/MAIT cell co-cultures were exposed to 1 μM Acetyp 6-formylpterin (Ac 6-FP) (Schircks Laboratories, Switzerland) for 2 hrs at 37° C. Cells were then washed, trypsinised, labeled with PE-conjugated anti MR1 antibody (26.5)/isotype control and subjected to flow cytometric analysis.
(In general: Flow cytometry measures light scatter and fluorescence of single cells or particles in a stream.)

T1 sequence (P61769 21-119): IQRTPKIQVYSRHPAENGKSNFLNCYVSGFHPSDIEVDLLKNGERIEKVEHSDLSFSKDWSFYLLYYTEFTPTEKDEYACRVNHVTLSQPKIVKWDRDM
T1 sequence (Q95460 23-341): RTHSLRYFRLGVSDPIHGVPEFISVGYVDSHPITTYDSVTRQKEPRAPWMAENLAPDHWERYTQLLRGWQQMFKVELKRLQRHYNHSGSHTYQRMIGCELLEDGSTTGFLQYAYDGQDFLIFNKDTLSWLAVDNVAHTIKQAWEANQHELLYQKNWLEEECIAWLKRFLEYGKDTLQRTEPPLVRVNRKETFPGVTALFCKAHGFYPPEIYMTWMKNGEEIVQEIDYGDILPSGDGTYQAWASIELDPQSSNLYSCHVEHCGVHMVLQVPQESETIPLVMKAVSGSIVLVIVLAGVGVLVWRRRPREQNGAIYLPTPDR

Turning to “Acetyl-6-formyl-pterin [Acetyl-6-formyl-pterin (6FP)]”, the “surface expression of MR1 on hepatic myofibroblasts” value is on record as “enhanced”.
